{
  "source": "patent US6203822A",
  "about": "“Gallium-containing compounds for the treatment of infections caused by intracellular pathogens and pathogens causing chronic pulmonary infection” (priority 1996, dated 2001)",
  "key": {"[1]": {"system": "M. tuberculosis in human alveolar macrophages", "test": "M. tuberculosis in human alveolar macrophages, gallium nitrate with or without anti-tuberculous antibiotics", "assay_type": "cell-based", "protocol": "(§1) The gallium-containing compounds can also be tested for their ability to inhibit intracellular pathogens in tissue culture assays. In general, in these assays, the macrophages are placed in culture and incubated with the intracellular pathogen at an approximate cell to pathogen ratio of preferably at least 1:1 to about 1:5 cells:pathogen. Exemplary culture conditions are provided in the assays detailed in the Examples. For assays assessing M. tuberculosis infection, freshly adherent monocytes, 12 day-old adherent MDMs, or freshly adherent alveolar macrophages are incubated with M. tuberculosis, MAI or other intracellular bacteria at a ratio of about 1:1 to about 1:5 (phagocyte:bacterium). For M. tuberculosis or MAI, the bacteria are incubated with the phagocyte for 2 hr at 37° C. in RPMI/HEPES media with 2.5% serum or human serum albumin (serum-free). The cells are washed to remove non-adherent bacteria and monolayers are replated with RPMI containing 1% autologous serum (to maintain phagocyte viability but not to sustain extracellular growth of bacteria). Gallium-containing compounds, such as gallium nitrate, with, or without, other agents such as antibiotics, cytokines etc., are added about 24 hr. later and mycobacterial growth in cell lysates is then assessed over the next several days either by the radiometric BACTEC system or by colony-forming units on agarose plates. In each experiment, growth is assessed relative to control monolayers where no drug has been added.\nHuman alveolar macrophages were purified from healthy non-smoking adult volunteers and placed in monolayer culture. M. tuberculosis infected cells were treated with gallium nitrate as described in Example 2. Antituberculous antibiotics were added to wells alone or with gallium nitrate at 500 μM 24 h after M. tuberculosis infection. Antituberculous antibiotics tested included streptomycin (2.016 μg/ml), isoniazid (0.1 μg/ml), rifampin (2.0 μg/ml), and ethambutol (2.52 μg/ml) and the combination of antibiotics was denoted as SIRE. Antibiotics were obtained in lyophilized form from BACTEC. The antibiotics were reconstituted in sterile water per package instructions. With reference to FIG. 3, SIRE refers to combinations of streptomycin, isoniazid, rifampin and ethambutol while IR refers to combinations of Isoniazid and rifampin.\nInfected macrophages were cultured for 24 h, 48 h, or 120 h. Growth index readings of combined supernatants and cell lysates were measured in the BACTEC 460 TB system. […] Since these antibiotics have a number of unpleasant side effects that are reduced at reduced concentrations of the drugs, combined therapies that permit these antibiotics to be administered at lower doses when combined with gallium nitrate is significant and may help to promote better drug compliance in patients infected with M. tuberculosis."}, "[2]": {"system": "M. tuberculosis strain Erdman in human macrophages", "test": "Growth inhibition of M. tuberculosis Erdman in human monocyte derived macrophages (MDM)", "assay_type": "cell-based", "protocol": "(§2) Monocyte derived macrophages (MDM) containing strain H37Ra were incubated for 24 h (FIG. 2A), 48 h (FIG. 2B) or 72 h (FIG. 2C) and macrophages containing the virulent strain Erdman were incubated for 24 h (FIG. 2D) or 48 h (FIG. 2E) in gallium nitrate.\nas §1\n(§3) Mononuclear phagocytes from healthy adult volunteers who were tuberculin skin test negative and had no history of mycobacterial infection were isolated and cultured in Teflon wells according to the methods of Schlesinger, et al. (J. Immunol. 150:2920-2930, 1993). […]"}, "[3]": {"system": "M. avium-intracellulare complex (MAI), ATCC #25291", "test": "Growth inhibition of MAI (ATCC isolate) in human alveolar macrophages", "assay_type": "cell-based", "conditions": "500 μM, 24 hr and 48 hr", "protocol": "(§4) M. avium-intracellulare complex (MAI) was obtained from the ATCC (#25291) and from a patient isolate from the State Hygienic laboratory at the University of Iowa Hospital and Clinics. Human alveolar macrophages were obtained from broncholavage of healthy patients and placed in monolayer culture. The bacteria were added to the cells in a bacteria to macrophage ratio of about 1:1. Growth index readings were obtained at 24 hr and 48 hr after gallium nitrate administration (500 μM) as described in Example 3 and used by Cavalieri, et al. (Antimicrob. Agents and Chemo. 39:1542-1545,1995)."}, "[4]": {"system": "M. tuberculosis strain H37Ra in human macrophages", "test": "Growth inhibition of M. tuberculosis H37Ra in human monocyte derived macrophages (MDM)", "assay_type": "cell-based", "protocol": "as §2, §1, §3"}, "[5]": {"system": "M. avium-intracellulare complex (MAI), patient isolate", "test": "Growth inhibition of MAI (patient isolate) in human alveolar macrophages", "assay_type": "cell-based", "conditions": "500 μM, 24 hr and 48 hr", "protocol": "as §4"}, "[6]": {"conditions": "cited from earlier work"}, "[7]": {"conditions": "infused in vivo; cited from earlier work"}},
  "data": [
    {"smiles": "O=[N+]([O-])[O-].O=[N+]([O-])[O-].O=[N+]([O-])[O-].[Ga+3]", "note": "[gallium nitrate]", "values": [
      {"measurement": "augmentation of growth inhibition by antibiotics", "setting": "[1]; gallium nitrate 500 μM plus suboptimal antibiotics (1/10 the standard concentrations), human alveolar macrophages", "result": "augments the ability of suboptimal concentrations of antibiotics"},
      {"measurement": "enhancement of antibiotic growth inhibition", "setting": "[1]; suboptimal streptomycin, isoniazid, rifampin and ethambutol or suboptimal Isoniazid and rifampin", "result": "clear-cut enhancement in inhibition of M. tuberculosis growth"},
      {"measurement": "inhibition of growth", "setting": "[2]; 24 h", "result": "Inhibition of growth was observed"},
      {"measurement": "inhibition of growth", "setting": "[2]; about 1 to about 1000 μM", "result": "dose-dependent inhibition of growth"},
      {"measurement": "inhibition of growth versus 24 h", "setting": "[2]; text: 48 and 72 h, FIG. 2 legend: 24 and 48 h for Erdman", "result": "More marked inhibition of growth"},
      {"measurement": "growth inhibition of MAI", "setting": "[3]", "result": "inhibits the growth of MAI"},
      {"measurement": "growth inhibition of MAI", "setting": "[3]; listed as Gallium nitrate", "result": "significant inhibition of MAI growth"},
      {"measurement": "inhibition of growth versus 24 h", "setting": "[4]; 48 and 72 h", "result": "More marked inhibition of growth"},
      {"measurement": "inhibition of growth", "setting": "[4]; 24 h", "result": "Inhibition of growth was observed"},
      {"measurement": "inhibition of growth", "setting": "[4]; about 1 to about 1000 μM", "result": "dose-dependent inhibition of growth"},
      {"measurement": "growth inhibition of MAI", "setting": "[5]", "result": "inhibits the growth of MAI"},
      {"measurement": "growth inhibition of MAI", "setting": "[5]; listed as Gallium nitrate", "result": "significant inhibition of MAI growth"},
      {"measurement": "dose that is non-toxic in vivo", "setting": "[6]; in vivo", "result": "at least 200 mg/m^2 /day"},
      {"measurement": "plasma concentration that is non-toxic in vivo", "setting": "[6]; in vivo", "result": "greater than 1.2 mg/L"},
      {"measurement": "tolerated dose", "setting": "[6]; intravenous, at least 7 days (Todd et al.)", "result": "at least 200 mg/m^2 /day"},
      {"measurement": "safe dose in cancer patient therapy", "setting": "[6]; literature, cancer patients", "result": "at least 200 mg/m^2 /day"},
      {"measurement": "tolerability", "setting": "[6]; patients with cancer-related hypercalcemia", "result": "well tolerated, producing few clinically relevant adverse effects"},
      {"measurement": "binding to serum transferrin on infusion", "setting": "[7]", "result": "most of the gallium binds rapidly to serum transferrin"}
    ]}
  ]
}
